# Structures can show the parent of a compound that is named as a salt.
# System: XBP1s-luc 293 LUC
# Assay: cellular PD assay, XBP1s-LUC reporter (Example 903)
# Assay type: cell-based
# Settings: Table 1; read-out: XBP1s-luc 293 LUC (IC50)
# Procedure, shortened: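 Cellular IRE1α pathway activity was quantified from the luciferase signal of an XBP1-Luc reporter, where the luciferase fusion is in frame and expressed only from the spliced XBP1 transcript.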
row,SMILES,IC50 [nM]
1,"Cc1cccc(S(=O)(=O)Nc2cccc3c(Oc4ncccc4-c4ccnc(N[C@H]5CCCNC5)n4)c(C)ccc23)n1 [Example 171, (S)-6-Methyl-N-(6-methyl-5-((3-(2-(piperidin-3-ylamino)pyrimidin-4-yl)pyridin-2-yl)oxy)naphthalen-1-yl)pyridine-2-sulfonamide]",309
2,"Cc1ccc2c(NS(=O)(=O)N3CCCC3)cccc2c1Oc1ncccc1-c1ccnc(N[C@H]2CCCNC2)n1 [Example 108, (S)—N-(6-Methyl-5-((3-(2-(piperidin-3-ylamino)pyrimidin-4-yl)pyridin-2-yl)oxy)naphthalen-1-yl)pyrrolidine-1-sulfonamide hydrochloride]",298
3,"Cc1ccc2c(NC(=O)[C@@H]3C[C@@H]3F)cccc2c1Oc1ncccc1-c1ccnc(N[C@H]2CCCNC2)n1 (relative stereo) [Example 212, (1S,2S)-2-Fluoro-N-[6-methyl-5-[[3-[2-[[(3S)-3-piperidyl]amino]pyrimidin-4-yl]-2-pyridyl]oxy]-1-naphthyl]cyclopropanecarboxamide]",122
4,"Cc1ccc2c(NC[C@H](O)c3ccccc3)cccc2c1Oc1ncccc1-c1ccnc(N[C@H]2CCCNC2)n1 [Example 309, (R)-2-((6-Methyl-5-((3-(2-((S)-piperidin-3-ylamino)pyrimidin-4-yl)pyridin-2-yl)oxy)naphthalen-1-yl)amino)-1-phenylethanol]",433
5,"CC[C@@H]1CCN(c2cccc3c(Oc4ncccc4-c4ccnc(N[C@H]5CCCNC5)n4)c(C)ccc23)C1=O (single isomer, unassigned) [Example 266]",121
6,"Cc1ccc2c(NCCc3cscn3)cccc2c1Oc1ncccc1-c1ccnc(N[C@H]2CCCNC2)n1 [Example 260, (S)-4-(2-((2-Methyl-5-((2-(thiazol-4-yl)ethyl)amino)naphthalen-1-yl)oxy)pyridin-3-yl)-N-(piperidin-3-yl)pyrimidin-2-amine]",103
7,"Cc1ccc2c(NS(=O)(=O)CF)cccc2c1Oc1ncccc1-c1ccnc(N[C@H]2CCCNC2)n1 [Example 159, (S)-1-Fluoro-N-(6-methyl-5-(3-(2-(piperidin-3-ylamino)pyrimidin-4-yl)pyridin-2-yloxy)naphthalen-1-yl)methanesulfonamide]",174
8,"CCCS(=O)(=O)Nc1cccc2c(Oc3ncccc3-c3ccnc(N[C@@H]4CNC[C@@H](F)C4)n3)c(C)ccc12 [Example 165, N-(5-((3-(2-(((3S,5S)-5-Fluoropiperidin-3-yl)amino)pyrimidin-4-yl)pyridin-2-yl)oxy)-6-methylnaphthalen-1-yl)propane-1-sulfonamide]",164
9,"Cc1ccc2c(NCCC#N)cccc2c1Oc1ncccc1-c1ccnc(N[C@H]2CCCNC2)n1 [Example 329, (S)-3-((6-Methyl-5-((3-(2-(piperidin-3-ylamino)pyrimidin-4-yl)pyridin-2-yl)oxy)naphthalen-1-yl)amino)propanenitrile]",123
10,"Cc1ccc2c(NS(=O)(=O)Cc3ccc(F)cc3F)c(F)ccc2c1Oc1ncccc1-c1ccnc(N[C@H]2CCCNC2)n1 [Example 186, (S)-1-(2,4-Difluorophenyl)-N-(2-fluoro-6-methyl-5-((3-(2-(piperidin-3-ylamino)pyrimidin-4-yl)pyridin-2-yl)oxy)naphthalen-1-yl)methanesulfonamide]",4.89
11,"CCCS(=O)(=O)Nc1cccc2c(Oc3ncccc3-c3ccnc(N[C@@H]4CNCC[C@H]4F)n3)c(C)ccc12 (single isomer, unassigned) [Example 206]",487
12,"Cc1ccc2c(Nc3nn(C)cc3F)cccc2c1Oc1ncccc1-c1ccnc(N[C@H]2CCCNC2)n1 [Example 360, (S)-4-(2-((5-((4-Fluoro-1-methyl-1H-pyrazol-3-yl)amino)-2-methylnaphthalen-1-yl)oxy)pyridin-3-yl)-N-(piperidin-3-yl)pyrimidin-2-amine]",455
13,"Cc1ccc2c(Oc3ncccc3-c3ccnc(N[C@H]4CCCNC4)n3)c(C)ccc2c1NS(=O)(=O)CCC(F)(F)F [Example 318, (S)—N-(2,6-Dimethyl-5-((3-(2-(piperidin-3-ylamino)pyrimidin-4-yl)pyridin-2-yl)oxy)naphthalen-1-yl)-3,3,3-trifluoropropane-1-sulfonamide]",41.7
14,"Cc1ccc2c(N3CC[C@H](C)C3=O)cccc2c1Oc1ncccc1-c1ccnc(N[C@H]2CCCNC2)n1 (single isomer, unassigned) [Example 257]",264
15,"Cc1ccc2c(N3CC[C@@H](CF)C3=O)cccc2c1Oc1ncccc1-c1ccnc(N[C@H]2CCCNC2)n1 [Example 315, (R)-3-(Fluoromethyl)-1-(6-methyl-5-((3-(2-(((S)-piperidin-3-yl)amino)pyrimidin-4-yl)pyridin-2-yl)oxy)naphthalen-1-yl)pyrrolidin-2-one]",471
16,"Cc1ccc2c(NCC(O)C(C)C)cccc2c1Oc1ncccc1-c1ccnc(N[C@H]2CCCNC2)n1 (mixture of isomers) [Example 200, 3-Methyl-1-((6-methyl-5-((3-(2-((S)-piperidin-3-ylamino)pyrimidin-4-yl)pyridin-2-yl)oxy)naphthalen-1-yl)amino)butan-2-ol]",77
17,"Cc1ccc2c(NS(=O)(=O)CCl)cccc2c1Oc1ncccc1-c1ccnc(N[C@H]2CCCNC2)n1 [Example 151, (S)-1-Chloro-N-(6-methyl-5-((3-(2-(piperidin-3-ylamino)pyrimidin-4-yl)pyridin-2-yl)oxy)naphthalen-1-yl)methanesulfonamide]",140
18,"CC[C@H]1CCN(c2cccc3c(Oc4ncccc4-c4ccnc(N[C@H]5CCCNC5)n4)c(C)ccc23)C1=O (single isomer, unassigned) [Example 355]",365
19,"Cc1cc(NS(=O)(=O)Cc2ccccc2)c2ccccc2c1Oc1ncccc1-c1ccnc(N[C@H]2CCCNC2)n1 [Example 163, (S)—N-(3-Methyl-4-((3-(2-(piperidin-3-ylamino)pyrimidin-4-yl)pyridin-2-yl)oxy)naphthalen-1-yl)-1-phenylmethanesulfonamide]",47
20,"Cc1ccc2c(N[C@H](C)[C@@H](C)O)cccc2c1Oc1ncccc1-c1ccnc(N[C@H]2CCCNC2)n1 [Example 381, anti-3-((6-Methyl-5-((3-(2-(((S)-piperidin-3-yl)amino)pyrimidin-4-yl)pyridin-2-yl)oxy)naphthalen-1-yl)amino)butan-2-ol]",403
21,"CCCS(=O)(=O)Nc1cccc2c(Oc3ncc(CC)cc3-c3ccnc(N[C@H]4CCCNC4)n3)c(C)ccc12 [Example 259, (S)—N-(5-((5-ethyl-3-(2-(piperidin-3-ylamino)pyrimidin-4-yl)pyridin-2-yl)oxy)-6-methylnaphthalen-1-yl)propane-1-sulfonamide]",361
22,"Cc1ccc2c(NS(=O)(=O)CC(C)C)c(F)ccc2c1Oc1ncccc1-c1ccnc(N[C@@H]2CNC[C@@H](F)C2)n1 (single isomer, unassigned) [Example 208]",18.2
23,"Cc1ccc2c(NS(=O)(=O)[C@@H](C)c3ccccc3)cccc2c1Oc1ncccc1-c1ccnc(N[C@H]2CCCNC2)n1 (single isomer, unassigned) [Example 214]",76
24,"Cc1ccc2c(Oc3ncccc3-c3ccnc(N[C@H]4CCCNC4)n3)c(C)ccc2c1NC(=O)C1CC1 [Example 284, (S)—N-(2,6-Dimethyl-5-((3-(2-(piperidin-3-ylamino)pyrimidin-4-yl)pyridin-2-yl)oxy)Naphthalen-1-yl)cyclopropanecarboxamide]",98.2
25,"Cc1cc(NS(=O)(=O)Cc2ccccc2)c2ccccc2c1Oc1ncccc1-c1ccnc(N[C@H]2CC[C@H](N)CC2)n1 [Example 110, N-(4-((3-(2-(((1r,4r)-4-aminocyclohexyl)amino)pyrimidin-4-yl)pyridin-2-yl)oxy)-3-methylnaphthalen-1-yl)-1-phenylmethanesulfonamide hydrochloride]",119
26,"CC[C@H](C)C(=O)Nc1cccc2c(Oc3ncccc3-c3ccnc(N[C@H]4CCCNC4)n3)c(C)ccc12 [Example 203, (S)-2-methyl-N-(6-methyl-5-((3-(2-(((S)-piperidin-3-yl)amino)pyrimidin-4-yl)pyridin-2-yl)oxy)naphthalen-1-yl)butanamide]",161

# Same assay, conditions: Table 2; read-out: XBP1s-luc 293 LUC (IC50)
row,SMILES,IC50 [nM]
1,"Cc1ccc2c(NS(=O)(=O)CCC(C)(F)F)c(F)ccc2c1Oc1ncccc1-c1ccnc(N[C@@H]2CNC[C@H](C)C2)n1 [Example 485, 3,3-Difluoro-N-[2-fluoro-6-methyl-5-[[3-[2-[[(3S,5R)-5-methyl-3-piperidyl]amino]pyrimidin-4-yl]-2-pyridyl]oxy]-1-naphthyl]butane-1-sulfonamide hydrochloride]",6
2,"Cc1ccc2c(NC[C@H](O)C(C)C)cccc2c1Oc1ncccc1-c1ccnc(N[C@H]2CCCNC2)n1 (single isomer, unassigned) [Example 461, hydrochloride]",42
3,"Cc1ccc2c(NS(=O)(=O)CC(C)C(F)(F)F)c(F)ccc2c1Oc1ncccc1-c1ccnc(N[C@H]2CCCNC2)n1 (single isomer, unassigned) [Example 454, hydrochloride]",24
4,"Cc1cc(NS(=O)(=O)CCC(F)(F)F)c2ccccc2c1Oc1ncccc1-c1ccnc(N[C@H]2CCCNC2)n1 [Example 478, (S)-3,3,3-Trifluoro-N-(3-methyl-4-((3-(2-(piperidin-3-ylamino)pyrimidin-4-yl)pyridin-2-yl)oxy)naphthalen-1-yl)propane-1-sulfonamide]",118
5,"Cc1ccc2c(NS(=O)(=O)C[C@H]3CC34CC4)c(F)ccc2c1Oc1ncccc1-c1ccnc(N[C@H]2CCCNC2)n1 (single isomer, unassigned) [Example 474, hydrochloride]",52
6,"Cc1cc(CS(=O)(=O)Nc2c(F)ccc3c(Oc4ncccc4-c4ccnc(N[C@@H]5CNC[C@@H](F)C5)n4)c(C)ccc23)no1 (single isomer, unassigned) [Example 468, hydrochloride]",10
7,"CCC(F)(F)CS(=O)(=O)Nc1c(F)ccc2c(Oc3ncccc3-c3ccnc(N[C@@H]4CNC[C@H](C)C4)n3)c(C)ccc12 [Example 486, 2,2-Difluoro-N-[2-fluoro-6-methyl-5-[[3-[2-[[(3S,5R)-5-methyl-3-piperidyl]amino]pyrimidin-4-yl]-2-pyridyl]oxy]-1-naphthyl]butane-1-sulfonamide hydrochloride]",3

# — patent US10968203B2, “Pyrimidinyl-pyridyloxy-naphthyl compounds and methods of treating IRE1-related diseases and disorders” (Genentech, Inc., priority 2017, dated 2021)
